Source: US6426087B1, “Orally administrable immediate-release and prolonged-release galenic form comprising an absorption-promoting agent and use of this absorption-promoting agent” (Merck Patent Gesellschaft mit, priority 1998, dated 2002)
One block for each molecule: values may come before it.

Experiments:
[1] = system: Caco-2 line; test: Permeability of carbon 14-labelled acamprosate with promoting agents in the Caco-2 cellular model (diffusion chamber); format: in vitro ADME, human; conditions: Papp of acamprosate
From the text: (§1) Actions of various promoting agents or mixtures of promoting agents on the permeability of calcium acetylhomotaurinate, in the Caco-2 cellular model.
(§2) A solution of carbon 14-labelled acamprosate, of known concentration, is placed in the apical compartment of a Grass Sweetana-type diffusion chamber which comprises a second so-called basolateral compartment separated from the first by an insert supporting a monocellular confluent culture of human colon adenocarcinoma […] epithelial cells, Caco-2 line.
(§3) Samples are collected at regular intervals from the second basolateral compartment. The acamprosate concentration is determined by […]. A simple calculation makes it possible to obtain the apparent permeability coefficient (Papp). The acamprosate solution is supplemented with various promoting agents or mixtures of promoting agents, under varying conditions. The influence of these agents on the apparent permeability coefficient (Papp) was measured. The experimental results are grouped together in the following table where the apparent permeability coefficient values (Papp) are expressed in cm/s.

[2] = as above; format: in vitro ADME, human; conditions: human, Caco-2; acamprosate solution, promoting agent: None; apical to basolateral; read-out: Papp, Mean (n = 6)
From the text: as §1, §2, §3

- Papp, Mean (n = 6) ([1]; promoting agent Conc. 0.2 % m/v): 114 10^−7 cm/s
SMILES: C[C@H](CCC(=O)NCC(=O)[O-])[C@H]1CC[C@H]2[C@@H]3[C@H](O)C[C@@H]4C[C@H](O)CC[C@]4(C)[C@H]3C[C@H](O)[C@]12C.[Na+] [Na glycocholate, sodium glycocholate]

SMILES: CCCCCCCCCC(=O)O [Capric]
- Papp, Mean (n = 6) ([1]; promoting agent Conc. 0.25 % m/v): 63.6 10^−7 cm/s

SMILES: CC(=O)NCCCS(=O)(=O)O [acamprosate, calcium 3-acetylamino-1-propanesulphonate, reference compound]
- Papp A→B [2]: 2.4 ×10⁻⁶ cm/s
